# Test results reported in patent publication US20250388593A1 (MITSUBISHI TANABE PHARMA CORPORATION, priority 2023, published 2025).
# Molecular target: CRBN truncate (318-426) (Homo sapiens (Human), UniProt Q96SW2)
# Assay: Measurement of molecular interactions using surface plasmon resonance (SPR), Biacore T200
# Assay type: binding
# Details: 25° C., immobilized CRBN truncate, upper limit of measurement 200 μM
# How it was run: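 C-terminally Avi-tagged CRBN (318-426) captured on a streptavidin SA chip on a Biacore T200. Running buffer 10 mM HEPES pH 7.5, 150 mM NaCl, 1 mM TCEP, 0.005% Tween 20, 2% DMSO; 60 s contact, 120 s dissociation.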
# Chain of CRBN truncate (318-426) (Q96SW2 318-426): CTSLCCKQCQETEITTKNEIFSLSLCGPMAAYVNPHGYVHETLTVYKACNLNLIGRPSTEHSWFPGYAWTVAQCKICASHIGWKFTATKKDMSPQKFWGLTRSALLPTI
row,SMILES,Kd [µM]
1,"Cc1sc2c(c1C)C(c1ccc(Cl)cc1)=N[C@@H](CC(=O)NCCCCCCCCNC(=O)CCc1ccc3c(N4CCCC(=O)NC4=O)nn(C)c3c1)c1nnc(C)n1-2 [Example 346, N-[8-[[2-[(9S)-7-(4-chlorophenyl)-4,5,13-trimethyl-3-thia-1,8,11,12-tetraazatricyclo[8.3.0.02,6]trideca-2(6),4,7,10,12-pentaen-9-yl]acetyl]amino]octyl]-3-[3-(2,4-dioxo-1,3-diazepan-1-yl)-1-methyl-indazol-6-yl]propanamide]",< 50
2,"Cc1sc2c(c1C)C(c1ccc(Cl)cc1)=N[C@@H](CC(=O)NCCCCCCCNC(=O)COc1cccc(C(=O)NC3CCCC(=O)NC3=O)n1)c1nnc(C)n1-2 (stereo partly drawn) [Example 347, 6-[2-[7-[[2-[(9S)-7-(4-chlorophenyl)-4,5,13-trimethyl-3-thia-1,8,11,12-tetraazatricyclo[8.3.0.02,6]trideca-2(6),4,7,10,12-pentaen-9-yl]acetyl]amino]heptylamino]-2-oxo-ethoxy]-N-(2,7-dioxoazepan-3-yl)pyridine-2-carboxamide]",< 50
3,"Cc1sc2c(c1C)C(c1ccc(Cl)cc1)=N[C@@H](CC(=O)NCCCCCCCCNC(=O)/C=C/c1cccc3c1N(C)C(=O)C3(C)N1C=CCC(=O)NC1=O)c1nnc(C)n1-2 (stereo partly drawn) [Example 348, (E)-N-[8-[[2-[(9S)-7-(4-chlorophenyl)-4,5,13-trimethyl-3-thia-1,8,11,12-tetrazatricyclo[8.3.0.02,6]trideca-2(6),4,7,10,12-pentaen-9-yl]acetyl]amino]octyl]-3-[3-(2,4-dioxo-5H-1,3-diazepin-1-yl)-1,3-dimethyl-2-oxoindolin-7-yl]prop-2-enamide]",< 50
4,"Cc1sc2c(c1C)C(c1ccc(Cl)cc1)=N[C@@H](CC(=O)NCCCCCCCNC(=O)Cn1c(=O)c(=O)n(C3CCCC(=O)NC3=O)c3ccccc31)c1nnc(C)n1-2 (stereo partly drawn) [Example 350, 2-[(9S)-7-(4-chlorophenyl)-4,5,13-trimethyl-3-thia-1,8,11,12-tetraazatricyclo[8.3.0.02,6]trideca-2(6),4,7,10,12-pentaen-9-yl]-N-[7-[[2-[4-(2,7-dioxoazepan-3-yl)-2,3-dioxo-quinoxalin-1-yl]acetyl]amino]heptyl]acetamide]",< 50
5,"Cc1sc2c(c1C)C(c1ccc(Cl)cc1)=N[C@@H](CC(=O)NCCCCCCCCNC(=O)CN1C(=O)[C@@](C)(N3CCCC(=O)NC3=O)c3ccccc31)c1nnc(C)n1-2 [Example 352, 2-[(9S)-7-(4-Chlorophenyl)-4,5,13-trimethyl-3-thia-1,8,11,12-tetraazatricyclo[8.3.0.02,6]trideca-2(6),4,7,10,12-pentaen-9-yl]-N-[8-[[2-[3-(2,4-dioxo-1,3-diazepan-1-yl)-3-methyl-2-oxoindol-1-yl]acetyl]amino]octyl]acetamide]",< 50
6,"Cc1sc2c(c1C)C(c1ccc(Cl)cc1)=N[C@@H](CC(=O)NCCCCCCCCCCC(=O)N1CCC(c3cnc(N4CCC5(CCCC(=O)NC5=O)C4)nc3)CC1)c1nnc(C)n1-2 (stereo partly drawn) [Example 354, 2-[(9S)-7-(4-Chlorophenyl)-4,5,13-trimethyl-3-thia-1,8,11,12-tetraazatricyclo[8.3.0.02,6]trideca-2(6),4,7,10,12-pentaen-9-yl]-N-[11-[4-[2-(6,8-dioxo-2,7-diazaspiro[4.6]undecan-2-yl)pyrimidin-5-yl]piperidin-1-yl]-11-oxoundecyl]acetamide]",< 50
7,"Cc1sc2c(c1C)C(c1ccc(Cl)cc1)=N[C@@H](CC(=O)NCCCCCCCCCCC(=O)N1CCC(c3cccc(NC45CCC(CC4)C(=O)NC5=O)c3)CC1)c1nnc(C)n1-2 [Example 355, 2-[(9S)-7-(4-chlorophenyl)-4,5,13-trimethyl-3-thia-1,8,11,12-tetraazatricyclo[8.3.0.02,6]trideca-2(6),4,7,10,12-pentaen-9-yl]-N-[11-[4-[3-[(2,4-dioxo-3-azabicyclo[3.2.2]nonan-1-yl)amino]phenyl]piperidin-1-yl]-11-oxoundecyl]acetamide]",50 to 100
8,Cc1sc2c(c1C)C(c1ccc(Cl)cc1)=N[C@@H](CC(=O)NCCCCCCCCCCC(=O)N1CCC(c3ccc(OC4CCCC(=O)NC4=O)cc3)CC1)c1nnc(C)n1-2 (some centres unmarked) [Example 356],< 50
9,"Cc1sc2c(c1C)C(c1ccc(Cl)cc1)=N[C@@H](CC(=O)NCCCCCCCCCCC(=O)N1CCc3c(ncnc3N3CC4(CC(=O)N(C5CCC(=O)NC5=O)C4=O)C3)C1)c1nnc(C)n1-2 (stereo partly drawn) [Example 357, 2-[(9S)-7-(4-chlorophenyl)-4,5,13-trimethyl-3-thia-1,8,11,12-tetraazatricyclo[8.3.0.02,6]trideca-2(6),4,7,10,12-pentaen-9-yl]-N-[11-[4-[6-(2,6-dioxo-3-piperidyl)-5,7-dioxo-2,6-diazaspiro[3.4]octan-2-yl]-6,8-dihydro-5H-pyrido[3,4-d]pyrimidin-7-yl]-11-oxo-undecyl]acetamide]",< 50
10,"C[C@@H]1Cc2c([nH]c3ccccc23)[C@@H](c2cnc(N3CCC(CN(C)CCCCCCCc4cccc5c4n(C)c(=O)n5C4CCCC(=O)NC4=O)CC3)nc2)N1CC(C)(C)F (stereo partly drawn) [Example 360-3, 3-[4-[7-[[1-[5-[(1R,3R)-2-(2-fluoro-2-methyl-propyl)-3-methyl-1,3,4,9-tetrahydropyrido[3,4-b]indol-1-yl]pyrimidin-2-yl]-4-piperidyl]methyl-methyl-amino]heptyl]-3-methyl-2-oxo-benzimidazol-1-yl]azepane-2,7-dione]",< 50
11,"C[C@@H]1Cc2c([nH]c3ccccc23)[C@@H](c2cnc(N3CCC(CN(C)CCCCCCCc4ccc(C(=O)N5CCC6(CCCC(=O)NC6=O)C5)cc4)CC3)nc2)N1CC(C)(C)F (stereo partly drawn) [Example 361-2, 2-[4-[7-[[1-[5-[(1R,3R)-2-(2-fluoro-2-methyl-propyl)-3-methyl-1,3,4,9-tetrahydropyrido[3,4-b]indol-1-yl]pyrimidin-2-yl]-4-piperidyl]methyl-methyl-amino]heptyl]benzoyl]-2,7-diazaspiro[4.6]undecane-6,8-dione]",< 50
